{
  "source": "ChEMBL document CHEMBL5653615",
  "about": "(J Biol Chem, 2013)",
  "key": {"[1]": {"target": "T1, Mitogen-activated protein kinase kinase kinase 5 (Homo sapiens) (UniProt Q99683)", "T1 sequence (whole entry)": "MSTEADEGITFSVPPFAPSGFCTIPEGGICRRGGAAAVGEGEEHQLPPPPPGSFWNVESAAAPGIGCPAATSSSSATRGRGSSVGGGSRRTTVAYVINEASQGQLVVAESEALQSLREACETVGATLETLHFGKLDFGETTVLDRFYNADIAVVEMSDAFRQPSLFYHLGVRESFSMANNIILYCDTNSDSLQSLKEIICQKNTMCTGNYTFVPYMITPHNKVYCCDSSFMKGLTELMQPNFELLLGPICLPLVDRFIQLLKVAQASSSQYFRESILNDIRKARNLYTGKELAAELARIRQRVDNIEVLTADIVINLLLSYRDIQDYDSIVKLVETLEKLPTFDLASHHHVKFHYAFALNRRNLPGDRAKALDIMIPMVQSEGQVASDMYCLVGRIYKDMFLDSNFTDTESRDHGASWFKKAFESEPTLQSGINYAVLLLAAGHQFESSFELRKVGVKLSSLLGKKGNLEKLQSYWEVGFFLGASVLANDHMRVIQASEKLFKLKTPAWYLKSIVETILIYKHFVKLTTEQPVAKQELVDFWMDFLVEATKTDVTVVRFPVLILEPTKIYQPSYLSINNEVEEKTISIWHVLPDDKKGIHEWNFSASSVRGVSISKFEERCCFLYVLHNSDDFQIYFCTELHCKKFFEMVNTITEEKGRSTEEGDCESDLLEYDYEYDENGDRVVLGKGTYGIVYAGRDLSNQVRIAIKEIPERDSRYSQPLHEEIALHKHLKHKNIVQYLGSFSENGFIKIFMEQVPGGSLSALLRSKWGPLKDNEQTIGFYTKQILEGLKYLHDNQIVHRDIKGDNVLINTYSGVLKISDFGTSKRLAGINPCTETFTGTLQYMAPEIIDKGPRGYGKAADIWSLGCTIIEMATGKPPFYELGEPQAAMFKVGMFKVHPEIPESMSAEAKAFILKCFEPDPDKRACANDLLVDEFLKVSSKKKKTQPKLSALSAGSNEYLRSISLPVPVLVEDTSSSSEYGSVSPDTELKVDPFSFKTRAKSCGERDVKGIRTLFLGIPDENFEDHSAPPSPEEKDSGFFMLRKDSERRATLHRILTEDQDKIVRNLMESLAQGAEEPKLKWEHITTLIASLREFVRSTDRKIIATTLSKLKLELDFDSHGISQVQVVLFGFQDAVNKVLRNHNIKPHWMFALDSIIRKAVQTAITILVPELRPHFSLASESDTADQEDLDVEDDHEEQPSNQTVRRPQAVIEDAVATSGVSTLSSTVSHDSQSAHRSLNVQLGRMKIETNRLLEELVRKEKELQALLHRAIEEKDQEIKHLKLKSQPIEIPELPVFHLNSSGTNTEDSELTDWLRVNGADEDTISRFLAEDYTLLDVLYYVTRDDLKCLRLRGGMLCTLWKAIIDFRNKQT", "assay": "Inhibition of human ASK1 at 1.82 nM by HotSpot assay relative to control"}, "[2]": {"target": "T2, Serine/threonine-protein kinase 17A (Homo sapiens) (UniProt Q9UEE5)", "T2 sequence (whole entry)": "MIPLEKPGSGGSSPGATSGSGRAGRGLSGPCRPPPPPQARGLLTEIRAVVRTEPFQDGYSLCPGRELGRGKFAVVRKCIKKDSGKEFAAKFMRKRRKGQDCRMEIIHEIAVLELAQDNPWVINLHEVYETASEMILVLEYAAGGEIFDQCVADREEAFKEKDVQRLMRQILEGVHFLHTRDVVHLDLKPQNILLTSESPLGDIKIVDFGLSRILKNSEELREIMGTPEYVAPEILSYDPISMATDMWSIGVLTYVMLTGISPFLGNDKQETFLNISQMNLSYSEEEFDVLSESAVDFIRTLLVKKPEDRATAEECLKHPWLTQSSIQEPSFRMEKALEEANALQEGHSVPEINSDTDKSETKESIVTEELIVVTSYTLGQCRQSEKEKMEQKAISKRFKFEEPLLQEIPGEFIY", "assay": "Inhibition of human DRAK1 at 1.82 nM by HotSpot assay relative to control"}, "[3]": {"target": "Casein kinase I isoform alpha (Homo sapiens) (UniProt P48729)", "sequence (P48729 2-337 limits assumed)": "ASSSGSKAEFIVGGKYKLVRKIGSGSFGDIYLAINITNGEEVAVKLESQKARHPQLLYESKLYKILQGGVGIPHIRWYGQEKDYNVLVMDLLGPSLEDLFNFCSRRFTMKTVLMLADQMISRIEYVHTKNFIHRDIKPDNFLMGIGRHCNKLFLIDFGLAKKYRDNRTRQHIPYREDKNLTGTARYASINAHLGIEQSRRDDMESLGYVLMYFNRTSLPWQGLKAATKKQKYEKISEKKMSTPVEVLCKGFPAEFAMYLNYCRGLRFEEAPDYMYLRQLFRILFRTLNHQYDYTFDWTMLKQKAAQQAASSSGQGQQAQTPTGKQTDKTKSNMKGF", "assay": "Inhibition of human CK1a1 at 18.6 nM by HotSpot assay relative to control"}, "[4]": {"target": "Ribosomal protein S6 kinase alpha-5 (Homo sapiens) (UniProt O75582)", "sequence (O75582 whole entry, looked up)": "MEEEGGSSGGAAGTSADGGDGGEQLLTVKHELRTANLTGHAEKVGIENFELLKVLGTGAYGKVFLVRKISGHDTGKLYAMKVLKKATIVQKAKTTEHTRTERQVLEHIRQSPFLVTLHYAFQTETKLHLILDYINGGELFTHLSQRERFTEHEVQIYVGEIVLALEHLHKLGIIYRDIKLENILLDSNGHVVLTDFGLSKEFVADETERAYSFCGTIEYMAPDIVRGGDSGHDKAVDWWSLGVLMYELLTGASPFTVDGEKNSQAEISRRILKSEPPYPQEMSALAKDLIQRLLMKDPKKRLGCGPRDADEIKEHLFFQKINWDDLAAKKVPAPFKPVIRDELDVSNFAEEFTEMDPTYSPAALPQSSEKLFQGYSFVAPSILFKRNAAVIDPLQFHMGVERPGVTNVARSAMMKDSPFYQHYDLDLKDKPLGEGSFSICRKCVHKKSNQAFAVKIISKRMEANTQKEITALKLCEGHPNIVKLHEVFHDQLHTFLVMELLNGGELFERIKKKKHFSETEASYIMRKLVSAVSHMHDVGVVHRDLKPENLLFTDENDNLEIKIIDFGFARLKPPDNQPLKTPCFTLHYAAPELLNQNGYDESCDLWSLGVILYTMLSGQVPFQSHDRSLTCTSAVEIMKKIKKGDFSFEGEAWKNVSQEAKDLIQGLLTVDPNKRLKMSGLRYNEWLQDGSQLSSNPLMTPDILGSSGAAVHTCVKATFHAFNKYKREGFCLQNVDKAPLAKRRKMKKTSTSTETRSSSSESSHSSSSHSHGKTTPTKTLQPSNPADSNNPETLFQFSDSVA", "assay": "Inhibition of human RPS6KA5 at 18.6 nM by HotSpot assay relative to control"}, "[5]": {"target": "T3, Serine/threonine-protein kinase ULK1 (Homo sapiens) (UniProt O75385)", "T3 sequence (whole entry)": "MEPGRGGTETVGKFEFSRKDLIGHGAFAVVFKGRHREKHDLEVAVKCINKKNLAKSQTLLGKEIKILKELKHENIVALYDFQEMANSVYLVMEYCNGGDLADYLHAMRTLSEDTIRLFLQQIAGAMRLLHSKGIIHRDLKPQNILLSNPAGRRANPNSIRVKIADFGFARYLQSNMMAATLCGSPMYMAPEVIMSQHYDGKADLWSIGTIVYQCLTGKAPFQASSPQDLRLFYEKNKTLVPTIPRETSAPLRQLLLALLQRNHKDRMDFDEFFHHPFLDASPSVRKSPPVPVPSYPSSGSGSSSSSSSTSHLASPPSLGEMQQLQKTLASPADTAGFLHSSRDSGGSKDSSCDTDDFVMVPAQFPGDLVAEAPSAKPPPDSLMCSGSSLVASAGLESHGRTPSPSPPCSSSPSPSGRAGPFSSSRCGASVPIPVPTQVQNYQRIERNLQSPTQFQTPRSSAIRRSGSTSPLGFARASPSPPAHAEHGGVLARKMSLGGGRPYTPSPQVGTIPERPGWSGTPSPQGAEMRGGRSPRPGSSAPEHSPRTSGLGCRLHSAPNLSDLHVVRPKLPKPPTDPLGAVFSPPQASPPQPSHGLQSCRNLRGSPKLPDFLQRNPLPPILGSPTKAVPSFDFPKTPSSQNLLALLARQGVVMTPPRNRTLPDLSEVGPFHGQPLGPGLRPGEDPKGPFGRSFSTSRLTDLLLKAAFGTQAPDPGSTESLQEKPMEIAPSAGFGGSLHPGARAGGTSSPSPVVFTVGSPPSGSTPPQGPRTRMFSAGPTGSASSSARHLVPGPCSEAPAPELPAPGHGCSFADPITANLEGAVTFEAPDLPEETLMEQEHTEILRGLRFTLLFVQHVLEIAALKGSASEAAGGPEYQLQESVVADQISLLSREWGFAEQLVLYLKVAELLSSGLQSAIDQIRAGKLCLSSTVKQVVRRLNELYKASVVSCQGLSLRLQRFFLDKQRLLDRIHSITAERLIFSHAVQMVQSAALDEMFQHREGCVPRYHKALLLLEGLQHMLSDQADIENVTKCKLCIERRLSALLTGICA", "assay": "Inhibition of human ULK1 at 18.6 nM by HotSpot assay relative to control"}},
  "data": [
    {"molecule": "C[C@@]1(C(=O)Nc2ccc(F)nc2)CCCN1c1nc(Nc2cc(C3CC3)n[nH]2)c2cccn2n1", "values": [
      {"measurement": "inhibition", "setting": "[1]", "value": -3.08, "unit": "%"},
      {"measurement": "inhibition", "setting": "[2]", "value": 2.5, "unit": "%"}
    ]},
    {"molecule": "C[C@]1(O)C[C@@H](c2nc(-c3ccc4ccc(-c5ccccc5)nc4c3)c3c(N)nccn32)C1", "values": [
      {"measurement": "inhibition", "setting": "[3]", "value": 4.32, "unit": "%"},
      {"measurement": "inhibition", "setting": "[4]", "value": -5.75, "unit": "%"},
      {"measurement": "inhibition", "setting": "[5]", "value": 2.65, "unit": "%"}
    ]}
  ]
}
